Test results published in patent publication US10550080B2 (BRISTOL-MYERS SQUIBB COMPANY, priority 2016, dated 2020).

What was measured:
[1] = target: NaV1.5 (Homo sapiens (Human), UniProt Q14524); assay: Automated electrophysiology, IonWorks Barracuda population patch clamp, NaV1.5 current (inactivated-state protocol); type: cell-based; details: HEK 293 cells expressing NaV1.5; read-out: NaV1.5 Barra IC50
Protocol: (§1) Automated Electrophysiology: Ion Works Barracuda population patch clamp (PPC). PPC measurements were performed using an IonWorks Barracuda instrument (Molecular Devices Corporation, Union City, Calif.) using either PatchPlate™ PPC substrates (Molecular Devices Corporation) with 64 apertures per well. The ability to average currents from 64 recordings from each well greatly improves data consistency and recording success rates in the measurement of NaV1.7 mediated ionic currents. Calculated leak current was digitally subtracted from the total cell NaV1.7 current for each sample point acquired.
(§2) NaV1.7 currents were elicited by a voltage clamp protocol designed to bias the NaV1.7 channels to their inactivated state as follows. From holding potential of −60 mV cells were briefly hyperpolarized to −100 mV for 1.25 sec, then stepped to −20 mV for 20 sec to inactivate the channels. This was followed by a relatively brief hyperpolarization to −100 mv for 300 ms, then a 20 msec test pulse to −20 mV to elicit the NaV1.7 current used to measure the pharmacology of all test compounds. Compounds were incubated for 600 sec between the pre- and post-compound reads. The external recording solution used was (in mM) 137 NaCl, 4 KCl, 1 MgCl2, 1.8 CaCl2, 10 Hepes, 10 glucose, pH to 7.4 with NaOH, and the internal solution used was (in mM) 100 K-gluconate, 40 KCl, 3.2 zMgCl2, 5 EGTA, 10 HEPES pH to 7.2 with KOH. The same solutions were used to record NaV1.5 currents, with the following voltage clamp protocol. NaV1.5 currents were elicited by a voltage clamp protocol designed to bias the NaV1.5 channels to their inactivated state as follows. From holding potential of −40 mV cells were briefly hyperpolarized to −100 mV for 300 ms, then stepped to −10 mV for 20 sec to inactivate the channels. This was followed by a relatively brief hyperpolarization to −100 mv for 30 ms, then a 20 msec test pulse to −10 mV to elicit the NaV1.5 current used to measure the pharmacology of all test compounds.
(§3) HEK 293 cells expressing NaV1.7 and NaV1.5 channels, were used (Essen Biosciences, Ann Arbor, Mich.). Cells were cultured in T-175 flasks and passaged every 2 to 3 days at 1:3 to 1:6 seeding density dilutions. Cells were grown to 70% to 90% confluence in a flask and removed from the incubator (37° C., 5% CO2) 1 to 3 days after plating. Growth medium was aspirated from the culture flasks. Cells were gently rinsed with 10 ml of PBS (Catalog number: 14190144, Gibco) to remove residual media. Next a total of 2 mL TrypLE (Gibco) solution was added, and the flasks containing cells were sat for 3 min at RT, after which, the cells became visibly rounded and were easily dislodged from the bottom of the flask with a few brief taps on a solid surface. A total of 8 mL of media was added to the flask to inactivate the TrypLE, and the mixture was centrifuged at 910 rpm for 4 min. The cell supernatant was decanted, and the cell pellets were resuspended in 5-6 mL of external solution followed by gentle triturations using a 10 ml pipette, and transferred to a 15 ml conical tube and immediately brought to the IW Barracuda instrument.
(§4) Peak membrane currents were analyzed with IW Barracuda software and exported to Excel for further analysis. Concentration response curve fitting was performed with BMS in-house software. IC50 values were obtained by fits of the Hill equation to the average percent inhibition data plotted versus compound concentration. […] Results are reported in Table 1 (NaV1.7 Barra IC50 in nM and NaV1.5 Barra IC50 in nM).

[2] = target: NaV1.7 (Homo sapiens (Human), UniProt Q15858); assay: Automated electrophysiology, IonWorks Barracuda population patch clamp, NaV1.7 current (inactivated-state protocol); type: cell-based; details: HEK 293 cells expressing NaV1.7; 600 sec compound incubation; read-out: NaV1.7 Barra IC50
Sequence of NaV1.7 (Q15858 whole entry): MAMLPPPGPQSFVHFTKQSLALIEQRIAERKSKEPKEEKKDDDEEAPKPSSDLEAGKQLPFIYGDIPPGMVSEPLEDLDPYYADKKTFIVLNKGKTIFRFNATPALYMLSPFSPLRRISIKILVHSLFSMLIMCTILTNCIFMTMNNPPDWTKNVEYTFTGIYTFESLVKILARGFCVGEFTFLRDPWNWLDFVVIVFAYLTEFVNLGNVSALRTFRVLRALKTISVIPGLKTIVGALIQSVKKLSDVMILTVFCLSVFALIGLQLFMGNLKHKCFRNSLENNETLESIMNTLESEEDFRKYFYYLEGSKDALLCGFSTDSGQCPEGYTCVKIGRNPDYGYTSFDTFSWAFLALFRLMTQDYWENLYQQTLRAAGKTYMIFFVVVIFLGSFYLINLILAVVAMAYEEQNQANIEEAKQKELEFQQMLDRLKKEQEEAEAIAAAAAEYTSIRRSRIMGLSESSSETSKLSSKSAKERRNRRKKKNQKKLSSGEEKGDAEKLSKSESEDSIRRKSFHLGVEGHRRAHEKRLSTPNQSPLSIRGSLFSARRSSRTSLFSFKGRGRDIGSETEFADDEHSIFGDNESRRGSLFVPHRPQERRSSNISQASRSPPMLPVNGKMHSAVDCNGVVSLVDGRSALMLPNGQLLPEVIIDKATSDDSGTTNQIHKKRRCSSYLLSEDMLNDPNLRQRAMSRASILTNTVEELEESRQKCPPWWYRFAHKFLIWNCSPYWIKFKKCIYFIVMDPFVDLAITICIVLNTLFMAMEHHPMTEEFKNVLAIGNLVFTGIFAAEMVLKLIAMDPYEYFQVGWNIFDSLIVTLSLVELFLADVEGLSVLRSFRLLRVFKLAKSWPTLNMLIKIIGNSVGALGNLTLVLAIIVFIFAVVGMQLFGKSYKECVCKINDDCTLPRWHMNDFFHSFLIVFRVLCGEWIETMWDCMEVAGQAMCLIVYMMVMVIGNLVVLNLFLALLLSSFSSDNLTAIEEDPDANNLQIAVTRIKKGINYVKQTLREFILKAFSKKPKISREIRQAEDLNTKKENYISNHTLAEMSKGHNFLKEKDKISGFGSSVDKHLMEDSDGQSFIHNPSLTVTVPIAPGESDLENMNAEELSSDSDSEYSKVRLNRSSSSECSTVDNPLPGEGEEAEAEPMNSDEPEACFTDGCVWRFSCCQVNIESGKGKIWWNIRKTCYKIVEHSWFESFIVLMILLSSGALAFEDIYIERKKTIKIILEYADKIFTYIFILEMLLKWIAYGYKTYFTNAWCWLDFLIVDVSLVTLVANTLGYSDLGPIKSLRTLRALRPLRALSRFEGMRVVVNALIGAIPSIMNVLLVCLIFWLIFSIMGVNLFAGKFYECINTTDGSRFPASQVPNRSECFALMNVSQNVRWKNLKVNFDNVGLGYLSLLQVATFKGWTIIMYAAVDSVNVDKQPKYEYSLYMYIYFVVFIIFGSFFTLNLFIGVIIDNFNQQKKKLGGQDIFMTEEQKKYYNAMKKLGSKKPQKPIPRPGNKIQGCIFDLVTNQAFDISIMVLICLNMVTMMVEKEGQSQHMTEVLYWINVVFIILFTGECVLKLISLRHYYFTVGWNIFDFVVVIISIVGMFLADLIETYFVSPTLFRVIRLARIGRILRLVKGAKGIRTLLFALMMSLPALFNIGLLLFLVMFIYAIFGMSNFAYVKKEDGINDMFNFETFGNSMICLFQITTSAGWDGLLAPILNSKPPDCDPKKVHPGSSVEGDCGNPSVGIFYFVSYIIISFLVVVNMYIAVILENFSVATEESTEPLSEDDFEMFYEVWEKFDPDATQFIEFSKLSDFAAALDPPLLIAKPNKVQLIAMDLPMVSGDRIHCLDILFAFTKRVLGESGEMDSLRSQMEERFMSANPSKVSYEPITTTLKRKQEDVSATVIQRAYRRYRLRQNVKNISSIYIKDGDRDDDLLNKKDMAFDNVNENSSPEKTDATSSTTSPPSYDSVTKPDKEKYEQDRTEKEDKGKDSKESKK
Protocol: as §1, §2, §3, §4

[3] = target: hNaV1.7 (Homo sapiens (Human), UniProt Q15858); assay: Ligand Binding Assay (LBA), radioligand displacement on hNaV1.7 HEK293 cell membranes; details: 0.5 nM [3H] radioligand, 24 hours at room temperature; read-out: NaV1.7 LBA IC50
Sequence of hNaV1.7 (Q15858 whole entry): as above
Protocol: Ligand Binding Assay (LBA): hNaV1.7 binding affinities were determined with a filtration binding assay using purified membranes from HEK293 cells stably expressing hNaV1.7. HEK293 cells from a 10-stack cell culture flask (approximately 10^10 cells) were dissociated, frozen, and stored at −80° C. To prepare membranes, the frozen cell pellet was thawed and suspended in 6 ml hypotonic lysis buffer (50 mM HEPES, 0.1% mammalian protease inhibitor cocktail). 1 ml of resuspended cells was added to an additional 6 ml of lysis buffer and homogenized with 30 strokes of a tight pestle in a glass homogenizer. Homogenate was centrifuged at 1000×g for 10 minutes at 4° C. and the resulting supernatant was further centrifuged at 38,500×g for 60 minutes at 4° C. The resulting pellet was resuspended in binding buffer (50 mM HEPES, 130 mM NaCl, 5.4 mM KCl, 0.8 mM MgCl2, 5 mM glucose, pH 7.4) and needle homogenized with a 25 gauge needle. Protein concentration was determined with a BCA protein assay. Purified membranes were aliquoted, flash frozen in an ethyl alcohol dry ice bath, and stored at −80° C. To measure displacement of a radiolabeled ligand, 50 μg of purified hNaV1.7 HEK cell membranes were incubated with test compounds (eight concentrations, in duplicate) and 0.5 nM [3H] labeled radioligand in a 96 well plate for 24 hours at room temperature on a shaker. The total binding reaction volume was 250 μl, consisting of 200 μl purified hNaV1.7 HEK cell membranes, 25 μl test compound, and 25 μl radioligand. Non-specific binding was defined by 20 μM of a reference hNaV1.7 inhibitor. Binding reactions were terminated by filtration through GF/B filters presoaked in 0.5% polyethyleneamine. Filters were washed 5 times with 2 ml each of 4′C wash buffer (50 mM Tris-HCl, pH 7.4 at 4° C.). Bound radioactivity captured on the filters was counted on a liquid scintillation counter. Specific binding, expressed as % inhibition, was fit with Graphpad Prism software to determine binding IC50 values. Results are reported in Table 1 (NaV1.7 LBA IC50 in nM).

Sequence of NaV1.5 (Q14524 whole entry): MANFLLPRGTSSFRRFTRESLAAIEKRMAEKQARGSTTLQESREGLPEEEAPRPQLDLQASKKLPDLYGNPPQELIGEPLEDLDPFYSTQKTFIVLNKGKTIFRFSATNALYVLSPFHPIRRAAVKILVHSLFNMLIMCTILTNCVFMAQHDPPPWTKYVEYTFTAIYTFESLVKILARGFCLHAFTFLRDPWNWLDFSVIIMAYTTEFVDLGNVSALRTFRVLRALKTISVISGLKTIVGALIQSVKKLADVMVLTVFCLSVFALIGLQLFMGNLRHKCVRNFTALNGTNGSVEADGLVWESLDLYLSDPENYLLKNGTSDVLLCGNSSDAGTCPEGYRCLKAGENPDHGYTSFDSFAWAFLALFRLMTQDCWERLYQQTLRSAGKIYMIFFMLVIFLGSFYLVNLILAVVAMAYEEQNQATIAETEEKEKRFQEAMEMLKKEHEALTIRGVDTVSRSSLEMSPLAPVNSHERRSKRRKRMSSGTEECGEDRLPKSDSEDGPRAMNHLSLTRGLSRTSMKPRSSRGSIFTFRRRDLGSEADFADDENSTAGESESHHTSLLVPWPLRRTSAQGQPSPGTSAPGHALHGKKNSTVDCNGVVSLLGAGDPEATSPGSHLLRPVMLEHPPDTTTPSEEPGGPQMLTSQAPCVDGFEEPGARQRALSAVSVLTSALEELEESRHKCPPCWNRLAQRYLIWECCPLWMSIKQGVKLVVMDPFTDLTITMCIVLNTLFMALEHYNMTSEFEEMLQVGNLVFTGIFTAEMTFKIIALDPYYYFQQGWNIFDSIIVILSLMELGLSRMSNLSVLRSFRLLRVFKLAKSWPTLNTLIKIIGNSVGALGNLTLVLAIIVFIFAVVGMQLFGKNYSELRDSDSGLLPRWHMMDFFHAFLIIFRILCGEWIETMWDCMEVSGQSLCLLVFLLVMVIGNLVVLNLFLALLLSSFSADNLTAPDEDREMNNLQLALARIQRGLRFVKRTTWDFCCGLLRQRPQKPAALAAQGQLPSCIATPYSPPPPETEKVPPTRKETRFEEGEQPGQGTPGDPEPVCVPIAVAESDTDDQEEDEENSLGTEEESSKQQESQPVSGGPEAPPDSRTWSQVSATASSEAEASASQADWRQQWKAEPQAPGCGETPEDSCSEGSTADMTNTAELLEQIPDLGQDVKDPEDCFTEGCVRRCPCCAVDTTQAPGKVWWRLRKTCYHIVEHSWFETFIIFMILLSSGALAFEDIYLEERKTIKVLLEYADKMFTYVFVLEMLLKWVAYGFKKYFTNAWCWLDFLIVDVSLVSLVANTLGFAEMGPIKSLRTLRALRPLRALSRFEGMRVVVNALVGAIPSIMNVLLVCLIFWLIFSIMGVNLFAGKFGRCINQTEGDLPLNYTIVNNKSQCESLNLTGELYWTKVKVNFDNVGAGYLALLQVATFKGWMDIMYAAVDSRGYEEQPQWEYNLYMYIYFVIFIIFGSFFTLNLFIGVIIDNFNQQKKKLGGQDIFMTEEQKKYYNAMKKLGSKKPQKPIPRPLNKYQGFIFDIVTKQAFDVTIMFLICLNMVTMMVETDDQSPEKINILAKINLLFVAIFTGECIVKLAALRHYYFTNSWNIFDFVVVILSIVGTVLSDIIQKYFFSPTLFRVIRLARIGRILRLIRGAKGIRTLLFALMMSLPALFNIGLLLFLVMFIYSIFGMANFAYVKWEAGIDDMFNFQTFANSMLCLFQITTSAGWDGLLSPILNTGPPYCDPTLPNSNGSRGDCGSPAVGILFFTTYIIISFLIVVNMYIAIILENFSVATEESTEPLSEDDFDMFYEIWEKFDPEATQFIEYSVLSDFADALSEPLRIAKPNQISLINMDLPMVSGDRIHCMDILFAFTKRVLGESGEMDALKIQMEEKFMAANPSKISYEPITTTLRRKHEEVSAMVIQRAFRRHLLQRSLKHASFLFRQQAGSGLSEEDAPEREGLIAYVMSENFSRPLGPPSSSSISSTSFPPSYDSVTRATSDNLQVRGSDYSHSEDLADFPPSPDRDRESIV

| SMILES | IC50 [1] [nM] | IC50 [2] [nM] | IC50 [3] [nM] |
| --- | --- | --- | --- |
| Cn1cc(-c2ccc(C(F)F)cc2)c2ccc(C(=O)NS(=O)(=O)C3CC3)cc21 [Example 31, N-(cyclopropylsulfonyl)-3-(4-(difluoromethyl)phenyl)-1-methyl-1H-indole-6-carboxamide] | > 30000 | 69 | 321 |
| CC(C)c1cccc(-c2cn(C)c3cc(C(=O)NS(C)(=O)=O)ccc23)c1 [Example 16, 3-(3-Isopropylphenyl)-1-methyl-N-(methylsulfonyl)-1H-indole-6-carboxamide] | > 30000 | 427 | 217 |
| CC(C)Cc1ccc(-c2cn(C)c3cc(C(=O)NS(C)(=O)=O)ccc23)cc1 [Example 12, 3-(4-Isobutylphenyl)-1-methyl-N-(methylsulfonyl)-1H-indole-6-carboxamide] | > 30000 | 363 | 317 |
| Cn1cc(-c2ccc(C(F)F)cc2)c2cc(F)c(C(=O)NS(=O)(=O)C3CC3)cc21 [Example 49, N-(Cyclopropylsulfonyl)-3-(4-(difluoromethyl)phenyl)-5-fluoro-1-methyl-1H-indole-6-carboxamide] | 9670 | 38 | 146 |
| CC(C)COc1ccc(-c2cn(C)c3cc(C(=O)NS(C)(=O)=O)ccc23)cn1 [Example 23, 3-(6-Isobutoxypyridin-3-yl)-1-methyl-N-(methylsulfonyl)-1H-indole-6-carboxamide] | > 30000 | 183 | 468 |
| CCc1ccc(-c2cn(C)c3cc(C(=O)NS(C)(=O)=O)ccc23)cc1 [Example 14, 3-(4-Ethylphenyl)-1-methyl-N-(methylsulfonyl)-1H-indole-6-carboxamide] | > 30000 | 173 | 554 |
| CC(C)COc1ccc(-c2cn(C)c3cc(C(=O)NS(C)(=O)=O)c(F)cc23)cn1 [Example 44, 5-Fluoro-3-(6-isobutoxypyridin-3-yl)-1-methyl-N-(methylsulfonyl)-1H-indole-6-carboxamide] | 18700 | 104 | 86 |
| CC(C)COc1ncc(-c2cn(C)c3cc(C(=O)NS(=O)(=O)C4CC4)ccc23)cc1Cl [Example 24, 3-(5-Chloro-6-isobutoxypyridin-3-yl)-N-(cyclopropylsulfonyl)-1-methyl-1H-indole-6-carboxamide] | 12000 | 294 | 22 |
